Series [1] is described as follows: In vivo pharmacokinetics in blood plasma. Conditions: male CD-1 mice. The procedure: Evaluation of the in vivo pharmacokinetics of a subset of compounds was performed through analysis of compound concentration in the blood plasma of male CD-1 (ICD) mice (each weighing 20-30 g) over a 24 hour period (at time points of 3, 10, 30, 60, 120, 240, 360 and 1440 minutes) following a single oral (PO) and intravenous (IV, in tail vein) administration of a compound dose corresponding to 5 mg of compound/kg of mouse body weight (PO) and 1 mg of compound/kg of mouse body weight (IV). For IV dosing, each compound was formulated as a clear solution in DMSO/Solutol® HS 15/phosphate-buffered saline, pH 7.4 (PBS) (5/5/90, v/v/v). For PO dosing, compounds were formulated as a homogeneous suspension in DMSO/1% methylcellulose (5/95, v/v).
At the relevant time point, blood samples (300-400 µL) were collected from the mice under general inhalant anaesthesia by cardiac puncture and stored on ice in 0.6 mL polypropylene heparin-lithium-coated tubes. Within 1 hour of collection, each tube was centrifuged at 2500 G for 15 minutes at 4°C and harvested plasma stored at -20°C.
Compound concentration in plasma at each time point was determined following acetonitrile precipitation of each sample followed by HPLC-MS analysis performed in triplicates, i.e., based on the mean of the compound concentration at that time point in blood samples of three mice.
Table 3: In vivo pharmacokinetics (min: minutes)

The subject of series [2] is MDA-MB-231 breast cancer cells. As to the kind of experiment: Efficacy in a Xenograft Mouse Model. In kind it is in vivo. Conditions: female NCr Nu/Nu mice, subcutaneous MDA-MB-231, 50 mg/kg oral twice daily, 21 days. The procedure:
The effect of compound 2 on MDA-MB-231 breast cancer cells was examined. The breast cancer cells were implanted subcutaneously in xenograft mouse models and the development of the body weight and the tumor volume were observed over time (21 days). Group 1 is the vehicle control group consisting of 9 animals, whereas group 2 consisted of 9 animals receiving 50 mg/kg of compound 2 twice-daily.
9 week old female NCr Nu/Nu mice (Charles River Laboratories, Inc.) were injected at the flank with 5x10^6 MDA-MB-231 cells. Once tumor volume reached 108-126 mm^3 (as measured by digital caliper) mice were randomized into a treatment and vehicle-control group of 9 animals each. The treatment group received oral doses of 50 mg/kg of compound 2 twice daily for 21 days (with the exception of a single dose on the first day), formulated as a homogeneous suspension in DMSO/1% methylcellulose (5/95, v/v). The control group received the same formulation but excluding compound 2. Tumor volume of all mice was evaluated bi-weekly up to day 19.

The subject of a further series is protein kinases. As to the kind of experiment: Selectivity profile with respect to protein kinases. In kind it is binding. Conditions: kinase groups TK, TKL, STE, CK1, AGC, CAMK, CMGC, other (Fig. 1). The text has this: A selectivity profile of compound 2 with respect to protein kinases is depicted in Figure 1. The protein kinases are selected from tyrosine kinases (TK), tyrosine kinase-like kinases (TKL), STE-Group, Cell Kinases 1 (CK1), AGC-Group, Calmodulin/Calcium regulated kinases (CAMK), CMGC Group and other kinases. The larger the respective dot, the higher the binding affinity of the compound to the respective protein kinases. […] As per Kawasaki Y. and Freire E. in Drug Discovery Today, 2011 November; 16(21-22): 985-990, "[e]xtremely high affinity and selectivity are two of the most sought-after properties of drug molecules."

Series [3] deals with T1, EphB4 (Homo sapiens, UniProt P54760).
T1 sequence (P54760 16-987): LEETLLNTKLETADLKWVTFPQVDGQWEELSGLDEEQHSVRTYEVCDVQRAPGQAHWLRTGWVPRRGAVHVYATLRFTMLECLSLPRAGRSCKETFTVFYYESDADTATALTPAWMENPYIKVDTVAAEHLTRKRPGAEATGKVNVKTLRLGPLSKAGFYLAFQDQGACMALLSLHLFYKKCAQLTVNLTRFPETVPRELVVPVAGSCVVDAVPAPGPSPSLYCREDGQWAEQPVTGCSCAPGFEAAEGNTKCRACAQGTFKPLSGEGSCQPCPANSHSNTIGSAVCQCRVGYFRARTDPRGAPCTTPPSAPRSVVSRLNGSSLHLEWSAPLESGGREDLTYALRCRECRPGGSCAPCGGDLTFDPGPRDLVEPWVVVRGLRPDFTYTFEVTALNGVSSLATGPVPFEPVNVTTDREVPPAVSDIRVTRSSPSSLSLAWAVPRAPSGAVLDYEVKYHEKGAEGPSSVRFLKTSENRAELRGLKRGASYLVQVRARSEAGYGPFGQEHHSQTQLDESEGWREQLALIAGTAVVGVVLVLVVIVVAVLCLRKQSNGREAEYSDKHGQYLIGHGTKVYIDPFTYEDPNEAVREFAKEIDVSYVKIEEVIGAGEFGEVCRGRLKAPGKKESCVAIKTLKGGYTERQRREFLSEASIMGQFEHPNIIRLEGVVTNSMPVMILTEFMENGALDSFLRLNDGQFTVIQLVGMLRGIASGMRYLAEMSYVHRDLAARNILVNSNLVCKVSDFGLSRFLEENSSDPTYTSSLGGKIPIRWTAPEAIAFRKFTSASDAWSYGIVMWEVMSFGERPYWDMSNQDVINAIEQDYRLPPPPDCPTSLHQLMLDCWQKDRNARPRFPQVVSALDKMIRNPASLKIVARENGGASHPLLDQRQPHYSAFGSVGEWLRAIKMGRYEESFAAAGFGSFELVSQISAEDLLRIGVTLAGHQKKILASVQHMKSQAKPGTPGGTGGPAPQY
As to the kind of experiment: Cellular phosphorylation assay (EphB4 autophosphorylation, sandwich ELISA). In kind it is cell-based. Also on record: stably transfected to overexpress full-length human EphB4; host or cells: mouse embryonic fibroblast cells. Conditions: mouse embryonic fibroblast cells overexpressing full-length human EphB4; 90 min at 37 °C; stimulated with murine ephrinB2-Fc. The procedure: Mouse embryonic fibroblast cells, stably transfected to overexpress full-length human EphB4, were plated at 4×10^4 cells/well in DMEM supplemented with 10% FCS in 48-well culture dishes. Medium was replaced by DMEM without FCS before test compounds prediluted in 100% DMSO were added (final DMSO concentration of 1 %). […] Quantification of EphB4 phosphorylation was assessed in a 96-well plate via sandwich ELISA using a myc capture antibody and an antiphosphotyrosine detection antibody.
On the technique in general: ELISA stands for enzyme-linked immunosorbent assay.

Series [4] concerns the target T1, EphB4. As to the kind of experiment: FRET based enzymatic assay (Z'-LYTE Kinase Assay Kit-Tyr 1 Peptide). Type of series: biochemical. Conditions: EphB4 25 ng/µL, ATP 125 µM, room temperature, 2 h. The procedure: Selected compounds were tested in the Z'-LYTE™ Kinase Assay Kit-Tyr 1 Peptide (Invitrogen, USA) in a Corning 384 well microtiter plate. Fluorescence progress curves were measured upon excitation at 400 nm and emission at 445 and 520 nm.

SMILES strings stand for the structures.

Results on 1 compound are retold here after patent EP2924040A1, “2-Amino-1-(o-tolyl)pyrrolo[3,2-b]quinoxaline-3-carboxamide derivates” (Universität Zürich, priority 2014, dated 2015).

What is called Cmax is the maximum level reached in the sampled fluid or tissue. As a reminder, the Tmax is the time at which the peak concentration occurs. As usually defined, the IC50 is the concentration that gives 50% inhibition. On to `Cc1ccc(O)cc1-n1c(N)c(C(N)=O)c2nc3ccccc3nc21` [Compound 2, 2-Amino-1-(5-hydroxy-2-methylphenyl)-1H-pyrrolo[2,3-b]quinoxaline-3-carboxamide], for which the “T1/2 (min, IV)” value in series [1] (IV 1 mg/kg, plasma) turned out to be 1.68 h. Also, the “Bioavailibility (%)” value in series [1] ([AUClast(PO)*Dose(IV)] / [AUClast(IV)*Dose(PO)]) turned out to be 25%. The Cmax in series [1] (mouse, PO 5 mg/kg, plasma) turned out to be 0.24 µg/mL. In series [1] (mouse, PO 5 mg/kg, plasma, read-out: T1/2 (min, PO)), the half-life turned out to be 1.67 h. For the same compound, in series [1] (mouse, PO 5 mg/kg, plasma, read-out: Tmax (min, PO) (converted)), the Tmax is 0.5 h. Moreover, the group-median tumor volume result in series [2] is on record as “remarkable group-median tumor volume control”. For the same compound, the “selectivity profile (binding affinity) with respect to protein kinases” value in the series on protein kinases is recorded as “selectivity towards tyrosine kinases (TK)”. In addition, the IC50 is below 0.006 µM on EphB4 [3] and 0.011 µM at EphB4 [4].
